Experiments:
Saccharomyces cerevisiae [1] = assay: Inhibition of Saccharomyces cerevisiae alpha-glucosidase assessed as reduction in PNP formation at 10 uM using alpha-PNPG as substrate incubated for 30 mins relative to control
[2] = Inhibition of Escherichia coli […] expressed in Escherichia coli BL21 (DE3) assessed as reduction in PNP formation using beta-PNPG as substrate incubated for 30 mins
Escherichia coli [3] = assay: Inhibition of recombinant Escherichia coli […] expressed in Escherichia coli BL21(DE3) assessed as reduction in PNP formation at 10 uM using beta-PNPG as substrate incubated for 30 mins relative to control
[4] = Inhibition of Saccharomyces cerevisiae alpha-glucosidase assessed as reduction in PNP formation using alpha-PNPG as substrate incubated for 30 mins
[5] = Mixed inhibition of recombinant Escherichia coli […] expressed in Escherichia coli BL21(DE3) using beta-PNPG as substrate incubated for 30 mins by Lineweaver-Burk plot analysis
[6] = Competitive inhibition of Saccharomyces cerevisiae alpha-glucosidase using alpha-PNPG as substrate incubated for 30 mins by Lineweaver-Burk plot analysis
L02 = assay: Cytotoxicity against human L02 cells assessed as reduction in cell viability incubated for 48 hrs by CCK8 assay; type: cell-based; conditions: L02, 48 h
Saccharomyces cerevisiae [7] = assay: Potency index, ratio of ACAR IC50 to test compound IC50 for inhibition of Saccharomyces cerevisiae alpha-glucosidase assessed as reduction in PNP formation using alpha-PNPG as substrate incubated for 30 mins
[8] = Uncompetitive inhibition of recombinant Escherichia coli […] expressed in Escherichia coli […] using beta-PNPG as substrate incubated for 30 mins by Lineweaver-Burk plot analysis
Escherichia coli [9] = assay: Potency index, ratio of DSL IC50 to test compound IC50 for inhibition of Escherichia coli […] expressed in Escherichia coli BL21 (DE3) assessed as reduction in PNP formation using beta-PNPG as substrate incubated for 30 mins

SMILES	inhibition (Saccharomyces cerevisiae [1])	IC50 [2]	inhibition (Escherichia coli [3])	IC50 [4]	Ki [5]	Ki [6]	IC50 (L02)	Ratio IC50 (Saccharomyces cerevisiae [7])	Ki [8]	Ratio IC50 (Escherichia coli [9])
Cc1nnc(SC(=O)c2ccc(-c3ccccc3Cl)o2)s1	94.1%	230 nM	100%	774 nM						
Cc1nnc(SC(=O)c2ccc(-c3ccc(Br)cc3)o2)s1	50.8%	755 nM	82.7%	11000 nM						
COc1ccc(-c2ccc(C(=O)Sc3nncs3)o2)cc1	74.4%	533 nM	93%	239 nM						
O=C(Sc1nncs1)c1ccc(-c2ccccc2Cl)o1	82.1%	5370 nM	88.1%	1350 nM						
O=C(Sc1nncs1)c1ccc(-c2c(F)cccc2F)o1	81.6%	849 nM	92.9%	903 nM						
O=C(O)[C@@H](O)[C@H]1OC(=O)[C@H](O)[C@H]1O [D-SACCHARIC ACID 1,4-LACTONE]		67300 nM	11.6%		30900 nM					
Cc1nnc(SC(=O)c2ccc(-c3ccc(F)cc3)o2)s1	58.7%	796 nM	78.8%	1850 nM						
O=C(Sc1nncs1)c1ccc(-c2cccc(Cl)c2)o1	77.1%	148 nM	83.8%	680 nM						
O=C(Sc1nncs1)c1ccc(-c2ccccc2F)o1	82.5%	1140 nM	87.8%	1670 nM						
COc1ccc(-c2ccc(C(=O)Sc3nnc(C)s3)o2)cc1	33.1%	303 nM	87.5%							
C[C@H]1O[C@H](O[C@H]2[C@H](O)[C@@H](O)[C@@H](O[C@H]3[C@H](O)[C@@H](O)C(O)O[C@@H]3CO)O[C@@H]2CO)[C@H](O)[C@@H](O)[C@@H]1N[C@H]1C=C(CO)[C@@H](O)[C@H](O)[C@H]1O (stereo not given in full) [ACARBOSE]	11.1%			517000 nM		378000 nM				
O=C(Sc1nncs1)c1ccc(-c2ccc(Cl)cc2)o1	68.9%	2080 nM	92%	186 nM		50 nM	83300 nM	2800		
Cc1ccc(-c2ccc(C(=O)Sc3nnc(C)s3)o2)cc1	44.4%	508 nM	85.7%							
O=C(Sc1nncs1)c1ccc(-c2ccccc2[N+](=O)[O-])o1	95.7%	341 nM	90.5%	223 nM			> 100000 nM			
Cc1nnc(SC(=O)c2ccc(-c3ccc(F)cc3F)o2)s1	65.8%	357 nM	86.7%	1940 nM						
Cc1nnc(SC(=O)c2ccc(-c3ccccc3F)o2)s1	69.9%	307 nM	96.6%	2740 nM						
Cc1nnc(SC(=O)c2ccc(-c3cccc(Cl)c3)o2)s1	82.5%	551 nM	99.6%	728 nM						

SMILES	inhibition (Saccharomyces cerevisiae [1])	IC50 [2]	inhibition (Escherichia coli [3])	IC50 [4]	Ki [5]	Ki [6]	IC50 (L02)	Ratio IC50 (Saccharomyces cerevisiae [7])	Ki [8]	Ratio IC50 (Escherichia coli [9])
O=C(Sc1nncs1)c1ccc(-c2ccc(F)cc2)o1	76.5%	526 nM	94.4%	652 nM						
Clc1ccc2c(c1)C(N1CCNCC1)=Nc1ccccc1O2 [AMOXAPINE]		83 nM	99.8%						50 nM	
O=C(Sc1nncs1)c1ccc(-c2ccccc2)o1	79.5%	1130 nM	105%	613 nM						
Cc1nnc(SC(=O)c2ccc(-c3ccccc3)o2)s1	73%	923 nM	95.9%	823 nM						
O=C(Sc1nncs1)c1ccc(-c2ccc(Br)cc2)o1	66.7%	379 nM	76.4%	526 nM						
Cc1nnc(SC(=O)c2ccc(-c3ccccc3[N+](=O)[O-])o2)s1	81.6%	564 nM	98.5%	658 nM						
Cc1ccc(-c2ccc(C(=O)Sc3nncs3)o2)cc1	78.2%	312 nM	90.1%	286 nM						
Cc1nnc(SC(=O)c2ccc(-c3ccc(Cl)cc3)o2)s1	48.8%	695 nM	77.8%							
O=C(Sc1nncs1)c1ccc(-c2cccc(F)c2)o1	82.6%	425 nM	95.9%	646 nM						
Cc1nnc(SC(=O)c2ccc(-c3cccc(F)c3)o2)s1	59.1%	82 nM	91.7%	2950 nM			86200 nM		60 nM	820
O=C(Sc1nncs1)c1ccc(-c2cccc([N+](=O)[O-])c2)o1	79.6%	212 nM	74.6%	1570 nM						
Cc1nnc(SC(=O)c2ccc(-c3cccc([N+](=O)[O-])c3)o2)s1	20.1%	1200 nM	92.5%							
Cc1nnc(SC(=O)c2ccc(-c3ccc([N+](=O)[O-])cc3)o2)s1	62.9%	247 nM	92.9%	2500 nM						
O=C(Sc1nncs1)c1ccc(-c2ccc([N+](=O)[O-])cc2)o1	75.1%			1810 nM						
O=C(Sc1nncs1)c1ccc(-c2ccc(F)cc2F)o1	71%	1260 nM	76.4%	1140 nM						
Cc1nnc(SC(=O)c2ccc(-c3c(F)cccc3F)o2)s1	90.8%	415 nM	96.1%	863 nM						

Source: ChEMBL document CHEMBL4813964, “2,5-Disubstituted furan derivatives containing 1,3,4-thiadiazole moiety as potent α-glucosidase and E. coli β-glucuronidase inhibitors” (Eur J Med Chem, 2021)
